Measured values: patent publication US11008346B2, “Beta-lactamase inhibitors” (priority 2014, dated 2021)

Columns and labels:
SHV-5 β-lactamase = target: T1, SHV-5 β-lactamase (Klebsiella pneumoniae, UniProt P0A3M1); experiment: β-lactamase enzyme inhibition, SHV-5; format: biochemical
T1 construct: made in house; host or cells: E. coli BL21(DE3)
Procedure, shortened: (§1)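 Native untagged enzymes expressed in E. coli BL21(DE3) and purified by cation exchange and gel filtration were preincubated with inhibitor for 15 min at 37° C. Hydrolysis was followed for 10 min: nitrocefin (100 μM final, 486 nm) for OXA-1 and p99 AmpC, imipenem (300 nm) for KPC-2, cefotaxime (260 nm) for SHV-5; IC50 from initial rates.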

KPC-2 β-lactamase = target: T2, KPC-2 β-lactamase (Klebsiella pneumoniae, UniProt Q9F663); experiment: β-lactamase enzyme inhibition, KPC-2; format: biochemical; conditions: imipenem substrate, 300 nm; 15 min at 37° C. preincubation; read-out: IC50 KPC-2 (Class A)
T2 construct: made in house; host or cells: E. coli BL21(DE3)
T2 sequence (Q9F663 25-293, looked up): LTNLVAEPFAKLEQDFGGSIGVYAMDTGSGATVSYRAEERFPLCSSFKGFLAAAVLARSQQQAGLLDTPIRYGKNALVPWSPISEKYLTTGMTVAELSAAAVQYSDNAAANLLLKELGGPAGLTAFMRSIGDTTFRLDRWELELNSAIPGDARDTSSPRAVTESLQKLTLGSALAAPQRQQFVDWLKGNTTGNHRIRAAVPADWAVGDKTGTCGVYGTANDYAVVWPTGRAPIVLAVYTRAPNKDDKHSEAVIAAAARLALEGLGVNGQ
Procedure, shortened: as §1

[1] = target: T3, VIM-2 metallo β-lactamase (Pseudomonas aeruginosa, UniProt Q9K2N0); experiment: β-lactamase enzyme inhibition, VIM-2; format: biochemical; conditions: Nitrocefin 100 μM, 486 nm; 15 min at 37° C. preincubation; read-out: IC50 VIM-2 (Class B)
T3 construct: made in house; host or cells: E. coli BL21(DE3)
Procedure, shortened: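 VIM-2 purified by Q sepharose anion exchange (50 mM Hepes pH 7.5, 0-600 mM NaCl gradient, two runs, >90% purity). Enzyme preincubated with inhibitor 15 min at 37° C; nitrocefin 100 μM final, absorbance at 486 nm followed 10 min. IC50 from initial hydrolysis rates versus inhibitor-free controls.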

p99 AmpC β-lactamase = target: T4, p99 AmpC β-lactamase (Enterobacter cloacae, UniProt P05364); experiment: β-lactamase enzyme inhibition, p99 AmpC; format: biochemical
T4 construct: made in house; host or cells: E. coli BL21(DE3)
T4 sequence (P05364 21-381): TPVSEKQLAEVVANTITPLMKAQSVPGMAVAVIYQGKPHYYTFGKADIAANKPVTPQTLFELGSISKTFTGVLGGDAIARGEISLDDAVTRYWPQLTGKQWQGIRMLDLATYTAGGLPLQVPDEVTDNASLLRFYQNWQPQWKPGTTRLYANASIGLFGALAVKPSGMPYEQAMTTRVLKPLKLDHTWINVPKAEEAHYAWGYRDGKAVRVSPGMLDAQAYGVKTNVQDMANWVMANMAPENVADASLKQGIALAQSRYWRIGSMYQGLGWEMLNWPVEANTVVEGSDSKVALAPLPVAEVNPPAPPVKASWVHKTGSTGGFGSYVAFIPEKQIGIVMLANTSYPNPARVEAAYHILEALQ
Procedure, shortened: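 Native untagged E. cloacae p99 AmpC was expressed in E. coli BL21(DE3) and purified by cation exchange and gel filtration. Enzyme was preincubated with inhibitor at 37°C for 15 min.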

OXA-1 β-lactamase = target: T5, OXA-1 β-lactamase (Escherichia coli, UniProt P13661); experiment: β-lactamase enzyme inhibition, OXA-1; format: biochemical; conditions: Nitrocefin 100 μM, 486 nm; 15 min at 37° C. preincubation; read-out: IC50 OXA-1 (Class D)
T5 construct: made in house; host or cells: E. coli BL21(DE3)
T5 sequence (P13661 26-276): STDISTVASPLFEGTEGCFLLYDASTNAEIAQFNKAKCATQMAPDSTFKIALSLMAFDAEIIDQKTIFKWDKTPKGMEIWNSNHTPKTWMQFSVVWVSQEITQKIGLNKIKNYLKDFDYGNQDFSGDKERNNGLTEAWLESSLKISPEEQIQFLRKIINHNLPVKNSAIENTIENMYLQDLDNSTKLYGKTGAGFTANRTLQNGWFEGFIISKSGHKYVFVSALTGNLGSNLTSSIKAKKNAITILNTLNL
Procedure, shortened: as §1

[2] = test system: E. coli ESBL4 expressing CTX-M-15; experiment: broth microdilution MIC, E. coli CTX-M-15; format: cell-based; conditions: Fixed CAZ (ceftazidime) 4 μg/mL
Procedure, shortened: (§2)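 Compounds were titrated in 2-fold steps from 32 to 0.25 μg/mL in cation-adjusted Mueller Hinton broth with a β-lactam held at 4 μg/mL. Plates were inoculated by CLSI broth microdilution with strains pre-grown 3–5 h. After 16–20 h at 37 °C, MIC was read visually.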

[3] = test system: E. cloacae 144200 expressing Class C P99 AmpC; experiment: broth microdilution MIC, E. cloacae P99; format: cell-based; conditions: Fixed CAZ (ceftazidime) 4 μg/mL
Procedure, shortened: as §2

[4] = test system: K. pneumoniae 156319 expressing KPC-3; experiment: broth microdilution MIC, K. pneumoniae KPC-3; format: cell-based; conditions: Fixed Mero (meropenem) 4 μg/mL
Procedure, shortened: as §2

[5] = test system: P. aeruginosa Ps296 expressing VIM-2; experiment: broth microdilution MIC, P. aeruginosa VIM-2; format: cell-based; conditions: Fixed Mero (meropenem) 4 μg/mL
Procedure, shortened: as §2

[6] = test system: K. pneumoniae A-1797 expressing KPC-2 and VIM-4; experiment: broth microdilution MIC, K. pneumoniae KPC-2 and VIM-4; format: cell-based; conditions: Fixed Mero (meropenem) 4 μg/mL
Procedure, shortened: as §2

[7] = test system: S. aureus MSSA-7 producing penicillinase PC-1; experiment: broth microdilution MIC, S. aureus PC-1; format: cell-based; conditions: Fixed Pip (piperacillin) 4 μg/mL
Procedure, shortened: as §2

T1 sequence (P0A3M1 22-286): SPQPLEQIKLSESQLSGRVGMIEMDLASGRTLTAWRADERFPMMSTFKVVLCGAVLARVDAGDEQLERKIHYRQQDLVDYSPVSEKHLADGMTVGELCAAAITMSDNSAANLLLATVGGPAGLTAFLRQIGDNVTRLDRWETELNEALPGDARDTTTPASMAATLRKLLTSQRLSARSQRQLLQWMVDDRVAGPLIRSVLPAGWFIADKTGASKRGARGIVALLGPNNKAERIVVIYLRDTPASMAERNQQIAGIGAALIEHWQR

## O=C(CCc1nccs1)N[C@H]1Cc2cccc(C(=O)O)c2OB1O [Example 31, (R)-2-hydroxy-3-(3-(thiazol-2-yl)propanamido)-3,4-dihydro-2H-benzo[e][1,2]oxaborinine-8-carboxylic acid]
SHV-5 β-lactamase
  IC50: < 100 nM
KPC-2 β-lactamase
  IC50: < 100 nM
[1]
  IC50: 1000 to 10000 nM
p99 AmpC β-lactamase
  IC50: < 100 nM
OXA-1 β-lactamase
  IC50: < 100 nM
[2]
  MIC of exemplary compounds in presence of fixed β-lactams, E. coli ESBL4 CTX-M-15: C (C represents the MIC in the presence of ≤4 g/mL of a β-lactamase inhibitor)
[3]
  MIC of exemplary compounds in presence of fixed β-lactams, E. cl. 144200 p99 AmpC: C (C represents the MIC in the presence of ≤4 g/mL of a β-lactamase inhibitor)
[4]
  MIC of exemplary compounds in presence of fixed β-lactams, K.P. 156319 KPC-3: C (C represents the MIC in the presence of ≤4 g/mL of a β-lactamase inhibitor)
[5]
  MIC of exemplary compounds in presence of fixed β-lactams, P. aerug. Ps296 VIM-2: C (C represents the MIC in the presence of ≤4 g/mL of a β-lactamase inhibitor)
[6]
  MIC of exemplary compounds in presence of fixed β-lactams, K.P. A-1797 KPC-2 VIM-4: B (B represents the MIC in the presence of between 8 and 32 g/mL of a β-lactamase inhibitor)
[7]
  MIC of exemplary compounds in presence of fixed β-lactams, S. aureus MSSA-7 PC-1: C (C represents the MIC in the presence of ≤4 g/mL of a β-lactamase inhibitor)

## COCCOCC(=O)N[C@H]1Cc2cccc(C(=O)O)c2OB1O [Example 27, (R)-2-Hydroxy-3-[2-(2-methoxy-ethoxy)-acetylamino]-3,4-dihydro-2H-benzo[e][1,2]oxaborinine-8-carboxylic acid]
SHV-5 β-lactamase
  IC50: < 100 nM
KPC-2 β-lactamase
  IC50: < 100 nM
[1]
  IC50: 100 to 1000 nM
p99 AmpC β-lactamase
  IC50: < 100 nM
OXA-1 β-lactamase
  IC50: < 100 nM
[2]
  MIC of exemplary compounds in presence of fixed β-lactams, E. coli ESBL4 CTX-M-15: C (C represents the MIC in the presence of ≤4 g/mL of a β-lactamase inhibitor)
[3]
  MIC of exemplary compounds in presence of fixed β-lactams, E. cl. 144200 p99 AmpC: C (C represents the MIC in the presence of ≤4 g/mL of a β-lactamase inhibitor)
[4]
  MIC of exemplary compounds in presence of fixed β-lactams, K.P. 156319 KPC-3: C (C represents the MIC in the presence of ≤4 g/mL of a β-lactamase inhibitor)
[5]
  MIC of exemplary compounds in presence of fixed β-lactams, P. aerug. Ps296 VIM-2: A (A represents an MIC of the fixed β-lactam antibiotic in the presence of >32 g/mL of a β-lactamase inhibitor)
[6]
  MIC of exemplary compounds in presence of fixed β-lactams, K.P. A-1797 KPC-2 VIM-4: B (B represents the MIC in the presence of between 8 and 32 g/mL of a β-lactamase inhibitor)
[7]
  MIC of exemplary compounds in presence of fixed β-lactams, S. aureus MSSA-7 PC-1: C (C represents the MIC in the presence of ≤4 g/mL of a β-lactamase inhibitor)

## O=C(/C=C/Cl)N[C@H]1Cc2cccc(C(=O)O)c2OB1O [Example 12, (R)-3-(3-Chloro-acryloylamino)-2-hydroxy-3,4-dihydro-2H-benzo[e][1,2]oxaborinine-8-carboxylic acid]
SHV-5 β-lactamase
  IC50: < 100 nM
KPC-2 β-lactamase
  IC50: < 100 nM
[1]
  IC50: 100 to 1000 nM
p99 AmpC β-lactamase
  IC50: < 100 nM
OXA-1 β-lactamase
  IC50: < 100 nM
[2]
  MIC of exemplary compounds in presence of fixed β-lactams, E. coli ESBL4 CTX-M-15: C (C represents the MIC in the presence of ≤4 g/mL of a β-lactamase inhibitor)
[3]
  MIC of exemplary compounds in presence of fixed β-lactams, E. cl. 144200 p99 AmpC: C (C represents the MIC in the presence of ≤4 g/mL of a β-lactamase inhibitor)
[4]
  MIC of exemplary compounds in presence of fixed β-lactams, K.P. 156319 KPC-3: B (B represents the MIC in the presence of between 8 and 32 g/mL of a β-lactamase inhibitor)
[5]
  MIC of exemplary compounds in presence of fixed β-lactams, P. aerug. Ps296 VIM-2: B (B represents the MIC in the presence of between 8 and 32 g/mL of a β-lactamase inhibitor)
[6]
  MIC of exemplary compounds in presence of fixed β-lactams, K.P. A-1797 KPC-2 VIM-4: A (A represents an MIC of the fixed β-lactam antibiotic in the presence of >32 g/mL of a β-lactamase inhibitor)
[7]
  MIC of exemplary compounds in presence of fixed β-lactams, S. aureus MSSA-7 PC-1: C (C represents the MIC in the presence of ≤4 g/mL of a β-lactamase inhibitor)
